{"source": "patent US20060240014A1", "about": "“Methods and compounds for the treatment of vascular stenosis” (Beth Israel Deaconess Medical Center, priority 2003, published 2006)", "test_system": "human aortic vascular smooth muscle cells (HASOM cells)", "assay": "hPDGF-BB induced migration of human aortic vascular smooth muscle cells (Boyden chamber)", "assay_type": "cell-based", "settings": "20 ng/ml hPDGF-BB, 48 hours drug pre-incubation, 12 hours migration, dose dependent (FIG. 1)", "procedure": "Drug concentrations for G are in ng/mL and for R are in pg/mL. The first lane has no PDGF added and the first two lanes have no drug compounds added. The results are expressed as means±S.E.M. of triplicate readings.\nIn vitro studies were performed to examine the dose response of Gleevec and rapamycin on human aortic vascular smooth muscle cells (HASOM cells). Cell migration was measured using a 24-well Boyden-chamber (Corning Costar Corp, Cambridge, Mass.). […] These membranes were coated with 0.1% gelatin for eight hours, then aspirated and allowed to dry for two hours. The cells were allowed to grow to 70% confluence and then treated with media containing 1% fetal calf serum and drug compounds (Gleevec alone, rapamycin alone and Gleevec and rapamycin together at the concentrations indicated in FIG. 1) for 48 hours prior to the migration assay. […] The cells were harvested in 0.05% trypsin, resuspended in M-199 media, and seeded on the coated membrane at a concentration of 4000 cells per well with Gleevec and/or rapamycin. The M-199 media containing 0.5% BSA and 20 ng/ml human PDGF-B (hPDGF-BB) was placed in the bottom Boyden chamber. Cells were incubated in 5% CO2 at 37° C. for 12 hours and the cells lying on the upper surface of the membrane were scraped. […] Cell migration was quantified by counting the cells in five random high-power fields on the lower surface of the membrane. […]", "note": "Where a name gives a salt, the structure may show the parent alone.", "data": [{"smiles": "Cc1ccc(NC(=O)c2ccc(CN3CCN(C)CC3)cc2)cc1Nc1nccc(-c2cccnc2)n1", "note": "[Gleevec, imatinib mesylate]", "values": [{"measurement": "inhibition of PDGF induced migration of HASOM cells", "value": "potently inhibited"}]}]}
